This passage reports GI50 and TGI results from PubChem BioAssay (NCI).

Where “and” joins values, the source holds several entries; their conditions need not be identical. Equal values may be shown once.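 These data come from cells grown in 96-well plates and exposed to compound for 48 hours at five concentrations. GI50: concentration for 50% inhibition of growth. At the TGI there is no net growth.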

Among the test systems are 786-0 renal; DU-145 prostate; HT29 colon; M14 melanoma; MDA-MB-231 breast; NCI-H23 lung; RPMI-8226 leukemia; SF-268 CNS; SNB-19 CNS; NCI-H226 lung.
Holding throughout (assay): NCI tumour cell line growth inhibition, 48 h

Take `COCCOc1ccc(-c2nc3ccc(-c4nc5ccc(N6CCN(C)CC6)cc5[nH]4)cc3[nH]2)cc1`: the GI50 was 1.64 µM in the experiment with 786-0 renal; 1.13 µM in the experiment with DU-145 prostate; 0.579 µM with HT29 colon; 0.449 µM in the experiment on M14 melanoma; 2.25 µM with MDA-MB-231 breast; 1.21 µM in the experiment on NCI-H23 lung. Moreover, the values for the GI50 with RPMI-8226 leukemia, in the experiment with SF-268 CNS and in the experiment with SNB-19 CNS were 4.11 µM, 0.576 µM and 1.87 µM, respectively. Besides, the TGI was 3.81 µM with 786-0 renal; 9.59 µM with DU-145 prostate; above 100 µM with HT29 colon; 2.5 µM with M14 melanoma; 6.49 µM with MDA-MB-231 breast; 5.09 µM in the experiment on NCI-H23 lung. In addition, the results for the TGI with RPMI-8226 leukemia, in the experiment with SF-268 CNS and with SNB-19 CNS were 35.5 µM, 5.67 µM and 10.5 µM, respectively.
As for `C=CC[C@H](C[C@H](C[C@H](C[C@H](C[C@H](C[C@H](C[C@H](C[C@H](C[C@H](C[C@H](CCCCC)OC)OC)OC)OC)OC)OC)OC)OC)OC)OC`, the TGI in the experiment with 786-0 renal, in the experiment with HT29 colon, with M14 melanoma, with NCI-H226 lung, in the experiment on NCI-H23 lung and with RPMI-8226 leukemia was above 100 µM in each case. The TGI in the experiment on SF-268 CNS and with SNB-19 CNS was above 100 µM each time.
Turning to `COC(=O)C(CCCN1C(=O)c2ccccc2C1=O)C(=O)OC`, the TGI with 786-0 renal, with HT29 colon, in the experiment on M14 melanoma, with NCI-H226 lung, in the experiment with NCI-H23 lung and in the experiment with SF-268 CNS was above 100 µM throughout. The same compound had a TGI with SNB-19 CNS above 100 µM.
On to `Cc1ccc(/C=C/C(=O)c2cccc3ccccc23)cc1`, for which the TGI in the experiment with 786-0 renal is 28.2 µM; with HT29 colon, 43.4 µM; with M14 melanoma, 39.5 µM; with NCI-H226 lung, 34.3 µM; in the experiment on RPMI-8226 leukemia it was above 100 µM; with SF-268 CNS, 33.1 µM. For the same compound, in the experiment with SNB-19 CNS, the TGI was 29.6 µM.
As to `N[C@@H]1CCCC[C@@H]1N.O=P([O-])([O-])CN(CCN(CP(=O)([O-])[O-])CP(=O)([O-])[O-])CP(=O)([O-])[O-].[Pt+2]`, the GI50 with 786-0 renal, with HT29 colon, in the experiment with M14 melanoma, in the experiment on NCI-H226 lung, with NCI-H23 lung and in the experiment on RPMI-8226 leukemia was above 25 µM in each case. For the same compound, the GI50 in the experiment with SF-268 CNS and with SNB-19 CNS was above 25 µM throughout. In addition, the TGI in the experiment with 786-0 renal, with HT29 colon, in the experiment on M14 melanoma, with NCI-H226 lung, in the experiment on NCI-H23 lung and in the experiment with RPMI-8226 leukemia was above 25 µM each time. For the same compound, the TGI with SF-268 CNS and with SNB-19 CNS was above 25 µM each time.
Take `O=C1CN(c2cccc(Cl)c2)C(=O)CN1CCN1CC(=O)N(c2cccc(Cl)c2)CC1=O`: the TGI in the experiment with 786-0 renal was above 100 µM; in the experiment with DU-145 prostate, above 100 µM; in the experiment on HT29 colon it was above 100 µM; in the experiment on M14 melanoma it was above 100 µM; with NCI-H23 lung, 71.1 µM; with RPMI-8226 leukemia it was above 100 µM. Also, the TGI in the experiment with SF-268 CNS and in the experiment on SNB-19 CNS was above 100 µM in each case.
As to `CC(=O)NNc1nc(C)c(C(=O)/C=C/c2ccc(NC(C)=O)cc2)s1`, the TGI in the experiment on 786-0 renal, in the experiment with HT29 colon, in the experiment on NCI-H23 lung, with RPMI-8226 leukemia, in the experiment on SF-268 CNS and in the experiment on SNB-19 CNS was above 100 µM throughout.
On to `CCOC(=O)C1=C(C(=O)OCC)C2c3ccccc3C=CN2C(C(=O)OCC)=C(SC)S1` (stereo not drawn), for which the TGI in the experiment with 786-0 renal, in the experiment with HT29 colon, in the experiment with M14 melanoma, in the experiment on NCI-H226 lung, in the experiment on NCI-H23 lung and with RPMI-8226 leukemia was above 100 µM each time. The TGI in the experiment with SF-268 CNS and with SNB-19 CNS was above 100 µM each time.
As for `S=c1sc2c(n1-c1ccccc1)NC=NC2S` (stereo not drawn), the TGI in the experiment with 786-0 renal, in the experiment with HT29 colon, with M14 melanoma, in the experiment with NCI-H226 lung, in the experiment with NCI-H23 lung and with RPMI-8226 leukemia was above 100 µM throughout. Also, the TGI in the experiment on SF-268 CNS and in the experiment on SNB-19 CNS was above 100 µM throughout.
Regarding `COc1cc(C2CC(C)(O)Oc3cc4c(cc32)OCO4)cc(OC)c1OC` (stereo not drawn), the TGI in the experiment with 786-0 renal is above 100 µM; in the experiment with DU-145 prostate it was above 100 µM; in the experiment on HT29 colon, above 100 µM; in the experiment on M14 melanoma, above 100 µM; in the experiment with MDA-MB-231 breast, 0.851 µM; in the experiment on NCI-H23 lung it was above 100 µM. For the same compound, the TGI was 18.7 µM with RPMI-8226 leukemia, above 100 µM in the experiment with SF-268 CNS and above 100 µM with SNB-19 CNS.
Take `CCCCCCCCCCCCCCCC[N+](C)(C)Cc1ccccc1`: the GI50 was 1.52 µM with 786-0 renal; 1.7 µM and 1.62 µM in the experiment with DU-145 prostate; 1.01 µM with HT29 colon; 1.2 µM in the experiment with M14 melanoma; 1.38 µM in the experiment with MDA-MB-231 breast; 0.0516 µM in the experiment with RPMI-8226 leukemia. In addition, the TGI with 786-0 renal was 2.93 µM; in the experiment with DU-145 prostate, 3.22 µM and 3.12 µM; in the experiment on HT29 colon, 2.36 µM; in the experiment on M14 melanoma it was 2.49 µM; in the experiment on MDA-MB-231 breast, 3.32 µM; in the experiment with RPMI-8226 leukemia it was 0.239 µM.
In the case of `CC(=O)OCCOCNC(=S)N/N=C(\C)c1cnccn1`, the TGI was above 100 µM with 786-0 renal; above 100 µM in the experiment with HT29 colon; 54.7 µM in the experiment with M14 melanoma; 79.7 µM in the experiment with NCI-H226 lung; above 100 µM in the experiment on NCI-H23 lung; above 100 µM with RPMI-8226 leukemia. For the same compound, the TGI with SF-268 CNS and in the experiment with SNB-19 CNS was above 100 µM throughout.
`CCCCCC[C@@H]1CCC2C(CO)[C@@H](O)CC[C@@H]2C1` (stereo partly drawn): the TGI stood at 33.5 µM in the experiment on 786-0 renal; 34.1 µM with HT29 colon; 31.3 µM in the experiment on M14 melanoma; 39.7 µM in the experiment on NCI-H226 lung; 30.8 µM in the experiment with NCI-H23 lung; 63.2 µM in the experiment with RPMI-8226 leukemia. Moreover, the figures for the TGI with SF-268 CNS and with SNB-19 CNS were 32.6 µM and 35.8 µM, respectively.
